Reference: paper PMC12655733, “Design, Synthesis and Evaluation of the First 2-Alkynyl(aza)indole ^18F Probe Targeting α-Synuclein Aggregates” (Pharmaceuticals, 2025)

What was measured:
Aβ1-42 fibrils [1] = molecular target: T1, Aβ1-42 fibrils (Homo sapiens, UniProt P05067); test: Inhibition of thioflavin T binding to Aβ1-42 fibrils (fluorescence competition), Ki determination; conditions: calculated from IC50, competition with ThT 500 nM, fibrils 500 nM, mean ± SD of 3 experiments; read-out: Ki Aβ
T1 construct: Wild-type α-syn and Aβ1-42 were expressed; made in house; host or cells: Escherichia coli BL21(DE3)
T1 sequence (P05067 672-713): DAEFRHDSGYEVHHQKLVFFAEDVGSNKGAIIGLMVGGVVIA
Procedure: (§1) Wild-type α-syn and Aβ1-42 were expressed in the Escherichia coli strain BL21(DE3) (Stratagene, La Jolla, CA, USA) and purified as described. […] For the Aβ1-42 peptide, the concentration was determined by a fluorometric method using the reactive compound fluorescamine (Sigma, San Jose, CA, USA) that reacts with primary amino groups to form a fluorescent product. The human Tau protein (isoform h2N4RTau) was expressed in the pET11d vector in the Escherichia coli strain BL21(DE3) (Stratagene, La Jolla, CA, USA) and purified as described.
(§2) For assembly into fibrils, α-syn was incubated in 50 mM Tris-HCl, pH 7.5, 150 mM KCl at 37 °C under continuous shaking for 4 days. Lyophilized Aβ1-42 was dissolved in 1,1,1,3,3,3-hexafluoro-2-propanol (HFIP) at a concentration of 0.2 mg/mL and incubated for 24 h at 37 °C to achieve complete solubilization. HFIP was evaporated under a nitrogen stream to obtain a dry film. To start assembly into fibrils, the dry peptide was resuspended in PBS pH 7.4, 10% (v/v) DMSO and incubated at 37 °C without shaking for 3 days. The Tau protein was assembled in fibrils in a PBS buffer containing 1 mM of DTT in the presence of 1/12 heparin (v/v) at 37 °C under shaking. […] Protein fibrils were systematically examined by transmission electron microscopy (TEM) in a Jeol 1400 transmission electron microscope following adsorption onto carbon-coated 200 mesh grids and negative staining with 1% uranyl acetate. The images were recorded with a Gatan Orius CCD camera (Gatan, Pleasanton, CA, USA). Finally, the percentage of α-syn or Aβ1-42 aggregated into fibrils was assessed by pelleting fibrils at 40,000× g for 20 min and by determining the concentration of soluble protein/peptide remaining in the supernatant.
(§3) The samples were incubated for 1 h at room temperature to achieve complete equilibration.

[2] = molecular target: T2, Tau fibrils (isoform h2N4RTau) (Homo sapiens, UniProt P10636); test: Direct fluorescence titration on Tau fibrils: Kd and Bmax; type: binding
T2 construct: made in house; host or cells: Escherichia coli BL21(DE3), pET11d vector
T2 sequence (P10636 1-441 isoform P10636-8): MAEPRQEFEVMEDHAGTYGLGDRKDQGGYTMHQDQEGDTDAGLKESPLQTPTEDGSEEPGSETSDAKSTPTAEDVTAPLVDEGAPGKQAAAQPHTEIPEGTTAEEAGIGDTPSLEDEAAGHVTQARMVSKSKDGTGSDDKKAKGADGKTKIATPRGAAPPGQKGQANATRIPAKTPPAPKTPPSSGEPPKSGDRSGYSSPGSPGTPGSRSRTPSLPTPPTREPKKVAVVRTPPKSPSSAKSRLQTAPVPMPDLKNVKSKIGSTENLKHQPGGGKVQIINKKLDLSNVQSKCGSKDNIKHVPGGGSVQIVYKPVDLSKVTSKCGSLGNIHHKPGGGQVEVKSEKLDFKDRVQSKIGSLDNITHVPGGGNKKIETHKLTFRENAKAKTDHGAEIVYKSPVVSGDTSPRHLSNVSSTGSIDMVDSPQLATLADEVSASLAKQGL
Source text: (§4) In view of the interesting properties of compounds 33–39, we decided to switch to azaindole structures and to study the impact of the position of the nitrogen atom in the 6-membered ring on binding to fibrils. At this step we measured, in addition to the Ki values, the direct binding of each compound to fibrils through the fluorescence in the fraction bound to fibrils, which allowed us to determine the affinity values (Kd, Table 1). […] We therefore prepared a fluorinated derivative of compound 43, i.e., 45.
(§5) Fresh solutions of each tested compound (2.5 mM in DMSO) were diluted in PBS pH 7.4 at concentrations ranging from 0.5 nM to 5 µM in the presence or absence of α-syn, Aβ1-42, or Tau fibrils (200 nM, 500 nM, or 200 nM, respectively) in a final volume of 2 mL. After 1 h incubation at room temperature, the binding of each compound to α-syn, Aβ1-42, or Tau fibrils was assessed by fluorescence measurements using the appropriate excitation/emission wavelengths (i.e., those yielding the highest fluorescence ratio between fibril-bound and free compound). For any given concentration of compound added to the fibrils, the concentrations of compound bound to the fibrils and free in solution were determined on the basis of the measured fluorescence. Since at each point of the titration: Fm = FB × B + FF × (T − B) where Fm is the measured fluorescence of the compound in the presence of fibrils at a given compound concentration T, FB is the specific molar fluorescence of the bound compound, FF is the specific molar fluorescence of the free compound, and B is the concentration of compound bound to the fibrils at any point of the titration. FF was determined by measuring the fluorescence of known compound concentrations in the absence of fibrils. FB was determined by measuring the maximum fluorescence of known compound concentrations upon saturation with α-syn, Aβ1-42, or Tau fibrils.
(§6) Therefore, at each point of the titration, the concentration of bound compound B could be determined and was B = (Fm − FF × T)/FB − FF. The B values thus determined versus the respective concentrations of free compound were analyzed by fitting to the Michaelis-Menten equation.

α-syn fibrils [3] = molecular target: T3, α-syn fibrils (Homo sapiens, UniProt P37840); test: Direct fluorescence titration on α-syn fibrils: Kd and Bmax; type: binding
T3 construct: made in house; host or cells: Escherichia coli BL21(DE3)
Source text: as §4, §5, §6

[4] = molecular target: T2, Tau fibrils (isoform h2N4RTau); test: Inhibition of thioflavin T binding to Tau fibrils (fluorescence competition), Ki determination; conditions: calculated from IC50, competition with ThT 500 nM, fibrils 200 nM, mean ± SD of 3 experiments
Procedure: as §1, §2, §3

Aβ1-42 fibrils [5] = test: Direct fluorescence titration on Aβ1-42 fibrils: Kd and Bmax; type: binding; conditions: from Kd values
Source text: as §4, §5, §6

Aβ1-42 fibrils [6] = molecular target: T1, Aβ1-42 fibrils; test: as above; type: binding; conditions: for Kd: direct assay on fibrils, mean ± SD of 3 experiments, read-out: Kd Aβ
Source text: as §4, §5, §6

α-syn fibrils [7] = molecular target: T3, α-syn fibrils; test: Inhibition of thioflavin T binding to α-syn fibrils (fluorescence competition), Ki determination; conditions: calculated from IC50, competition with ThT 500 nM, fibrils 200 nM, mean ± SD of 3 experiments
Procedure: as §1, §2, §3

[8] = Octanol–water partition coefficient at pH 7.4 (LogD); type: physicochemical; conditions: pH 7.4, mean ± SD on three independent experiments
α-syn in MSA tissues = molecular target: α-syn in MSA tissues; design: method as in PMID 38352848; conditions: cited from earlier work
[9] = direct assay on fibrils, mean ± SD of 3 experiments
[10] = density of binding sites, Scatchard analysis

**Q.** With `CN(C)c1ccc(C#Cc2cc3cccnc3[nH]2)cc1` [Compound 43] as the compound, how does the Ki (Aβ1-42 fibrils [1]) read?
**A.** 24.4 ± 9 nM

**Q.** What about the Kd [2, 9] of the same compound?
**A.** 0.44 ± 0.1 nM

**Q.** What about the “Kd Tau” value [2, 9] of the same compound?
**A.** sub-nanomolar

**Q.** And the Kd (α-syn fibrils [3]; [9])?
**A.** 0.53 ± 0.2 nM

**Q.** What about the “Kd α-Syn” value (α-syn fibrils [3]; [9]) of the same compound?
**A.** sub-nanomolar

**Q.** And the Ki [4]?
**A.** 4.61 ± 0.2 nM

**Q.** What about the “reduction of affinity for Aβ versus α-syn and tau fibrils” value (Aβ1-42 fibrils [5]) of the same compound?
**A.** 20 fold

**Q.** What about the Kd (Aβ1-42 fibrils [6]) of the same compound?
**A.** 11.8 ± 3 nM

**Q.** And the Ki (α-syn fibrils [7])?
**A.** 4.7 ± 2 nM

**Q.** With `CN(CCF)c1ccc(C#Cc2cc3cccnc3[nH]2)cc1` [Compound 45] as the compound, how does the “tau monomers per 1 compound bound” value ([2]; corresponding to Bmax) read?
**A.** 20 tau monomers

**Q.** What about the “Bmax on tau fibrils” value [2, 10] of the same compound?
**A.** 46.6 ± 5.0 nmol/µmol tau fibrils

**Q.** What about the Kd [2, 9] of the same compound?
**A.** 0.97 ± 0.4 nM

**Q.** And the “α-syn monomers per 1 compound bound” value (α-syn fibrils [3]; corresponding to Bmax)?
**A.** 7 α-syn monomers

**Q.** What about the “Bmax on α-syn fibrils” value (α-syn fibrils [3]; [10]) of the same compound?
**A.** 141.1 ± 45 nmol/µmol α-syn fibrils

**Q.** What about the Kd (α-syn fibrils [3]; [9]) of the same compound?
**A.** 2.4 ± 1 nM

**Q.** What about the logD [8] of the same compound?
**A.** 2.59 ± 0.141

**Q.** And the “Aβ monomers per 1 compound bound” value (Aβ1-42 fibrils [6]; corresponding to Bmax)?
**A.** 600 Aβ monomers

**Q.** And the “Bmax on Aβ fibrils” value (Aβ1-42 fibrils [6]; [10])?
**A.** 1.8 ± 0.6 nmol/µmol Aβ fibrils

**Q.** And the Kd (Aβ1-42 fibrils [6])?
**A.** 1.2 ± 1 nM

**Q.** With `O=C1c2cn(-c3ccc(N4CC[C@@H]([18F])C4)nc3)nc2CN1c1cccnc1` [[^18F] ACI-12589] as the compound, how does the Kd (α-syn in MSA tissues) read?
**A.** 22 to 30 nM
